Key:
[1] = target: E3 ubiquitin-protein ligase XIAP (Homo sapiens, UniProt P98170)
Description: Binding affinity to N-terminal 6xHis-tagged human cloned XIAP BIR3 domain expressed in Escherichia coli BL21 (DE3) by fluorescence polarization-based competitive binding assay

[2] = system: SK-OV-3; experiment: Growth inhibition of human SKOV3 cells after 4 days by WST8 assay; assay type: functional, cell-based; details: SK-OV-3, 96 h
[3] = system: MDA-MB-231; experiment: Induction of apoptosis in human MDA-MB-231 cells assessed as early apoptotic cells at 1 uM after 48 hrs using annexin V-propidium iodide staining by flow cytometry; assay type: functional
[4] = system: MDA-MB-231; experiment: Induction of apoptosis in human MDA-MB-231 cells assessed as early apoptotic cells at 30 nM after 48 hrs using annexin V-propidium iodide staining by flow cytometry; assay type: functional
[5] = system: MDA-MB-231; experiment: Induction of apoptosis in human MDA-MB-231 cells assessed as late apoptotic cells at 1 uM after 48 hrs using annexin V-propidium iodide staining by flow cytometry; assay type: functional
[6] = system: MDA-MB-231; experiment: Induction of apoptosis in human MDA-MB-231 cells assessed as late apoptotic cells at 100 nM after 48 hrs using annexin V-propidium iodide staining by flow cytometry; assay type: functional
[7] = system: MDA-MB-231; experiment: Induction of apoptosis in human MDA-MB-231 cells assessed as early apoptotic cells at 100 nM after 48 hrs using annexin V-propidium iodide staining by flow cytometry; assay type: functional
[8] = system: MDA-MB-231; experiment: Induction of apoptosis in human MDA-MB-231 cells assessed as late apoptotic cells at 30 nM after 48 hrs using annexin V-propidium iodide staining by flow cytometry; assay type: functional
[9] = system: MDA-MB-231; experiment: cells; details: Homo sapiens, MDA-MB-231, 96 h
Description: Growth inhibition of human MDA-MB-231 cells after 4 days by WST-8 assay

Sequence of E3 ubiquitin-protein ligase XIAP (P98170 whole entry): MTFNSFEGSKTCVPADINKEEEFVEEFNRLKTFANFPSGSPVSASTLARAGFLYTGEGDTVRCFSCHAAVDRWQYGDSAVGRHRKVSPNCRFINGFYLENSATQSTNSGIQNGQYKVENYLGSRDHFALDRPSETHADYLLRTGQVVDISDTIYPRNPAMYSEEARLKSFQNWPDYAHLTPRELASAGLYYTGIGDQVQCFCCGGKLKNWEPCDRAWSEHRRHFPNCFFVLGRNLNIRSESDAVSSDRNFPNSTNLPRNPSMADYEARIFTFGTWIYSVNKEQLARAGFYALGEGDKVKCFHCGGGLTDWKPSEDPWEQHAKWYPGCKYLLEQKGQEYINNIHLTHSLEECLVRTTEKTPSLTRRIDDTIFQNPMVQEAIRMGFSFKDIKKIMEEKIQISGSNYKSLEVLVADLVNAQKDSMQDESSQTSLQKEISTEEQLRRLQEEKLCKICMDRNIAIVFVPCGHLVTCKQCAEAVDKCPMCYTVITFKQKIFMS

Which Ki [1] does the source give for `CCC[C@H](N)C(=O)N[C@H]1CC[C@H]2CC[C@@H](C(=O)NCc3ccccc3)N2C1` here?
The Ki was over 100 µM.

How did the Ki [1] turn out when `CC[C@@H](C(=O)N[C@H]1CCCC[C@H]2CC[C@@H](C(=O)NC(c3ccccc3)c3ccccc3)N2C1=O)N1CCOCC1` was run?
Its Ki is 32.9 µM.

How did the Ki [1] turn out when `C[C@H](N)C(=O)N[C@H]1CCCC[C@H]2CC[C@@H](C(=O)NCc3ccccc3)N2C1=O` was run?
The Ki was 0.1 µM.

How did the IC50 [2] turn out when `CN[C@@H](C)C(=O)N[C@H]1CCCC[C@H]2CC[C@@H](C(=O)NC(c3ccccc3)c3ccccc3)N2C1=O` was run?
Its IC50 is 0.9 µM.

And the Activity [3]?
Its Activity is 39%.

What about the Activity [4] of the same compound?
The Activity was 13%.

What about the Activity [5] of the same compound?
Its Activity is 8%.

What about the Activity [6] of the same compound?
The Activity was 10%.

And the Activity [7]?
Its Activity is 29%.

And the Activity [8]?
The Activity was 2%.

With `C[C@H](O)C(=O)N[C@H]1CCCC[C@H]2CC[C@@H](C(=O)NC(c3ccccc3)c3ccccc3)N2C1=O` as the compound, how does the Ki [1] read?
The Ki was 13 µM.

What about the IC50 [2] of the same compound?
Its IC50 is over 10 µM.

And the IC50 [9]?
Its IC50 is 7 µM.

For `C[C@H](N)C(=O)N[C@H]1CCC[C@H]2CC[C@@H](C(=O)NC(c3ccccc3)c3ccccc3)N2C1=O`, which Ki [1] is on record?
The Ki was 0.06 µM.

How did the Ki [1] turn out when `CC[C@H](N)C(=O)N[C@H]1CCCC[C@H]2CC[C@@H](C(=O)NC(c3ccccc3)c3ccccc3)N2C1=O` was run?
Its Ki is 0.039 µM.

What about the IC50 [2] of the same compound?
Its IC50 is over 10 µM.

And the IC50 [9]?
Its IC50 is 8 µM.

With `CC[C@H](NC)C(=O)N[C@H]1CCCC[C@H]2CC[C@@H](C(=O)NC(c3ccccc3)c3ccccc3)N2C1=O` as the compound, how does the IC50 [2] read?
The IC50 was 1 µM.

What about the Activity [3] of the same compound?
Its Activity is 29%.

And the Activity [4]?
Its Activity is 13%.

And the Activity [5]?
The Activity was 8%.

And the Activity [6]?
The Activity was 3%.

What about the Activity [7] of the same compound?
The Activity was 20%.

What about the IC50 [9] of the same compound?
Its IC50 is 0.41 µM.

What about the Activity [8] of the same compound?
Its Activity is 3%.

How did the Ki [1] turn out when `CC[C@H](O)C(=O)N[C@H]1CCC[C@H]2CC[C@@H](C(=O)NC(c3ccccc3)c3ccccc3)N2C1=O` was run?
Its Ki is 29 µM.

For `CC[C@H](N)C(=O)N[C@H]1CCCC[C@H]2CC[C@@H](C(=O)N[C@@H](c3ccccc3)c3ccc4ccccc4c3)N2C1=O`, which Ki [1] is on record?
The Ki was 0.047 µM.

How did the Ki [1] turn out when `CC[C@H](N)C(=O)N[C@H]1CCCC[C@H]2CC[C@@H](C(=O)N[C@H](c3ccccc3)c3ccc4ccccc4c3)N2C1=O` was run?
The Ki was 0.759 µM.
